Assay results published in publication PMC11356900, “Synthesis, Structural Properties and Biological Activities of Novel Hydrazones of 2-, 3-, 4-Iodobenzoic Acid” (Molecules, 2024).
Converted amounts (≈) assume the structure as drawn.

Assays:
[1] = MTT cytotoxicity assay; type: cell-based, mouse; conditions: mouse, L929 fibroblast cells; L929, 48 h culture, dose of 25 μM; read-out: increased viability
Description: Among all the newly synthesized compounds, four compounds designated as: 14, 20, 21 and 27 were selected for further testing of their cytotoxic properties at the doses of 10, 25, 50, 75 and 100 µM. The cytotoxic properties of the above compounds were tested on the cancer cell lines, i.e., A549 (ECACC 86012804) (non-small-cell lung cancer), T47D (ECACC 85102201) (breast cancer), HeLa (ATCC® CCL-2™) (cervical cancer) and normal line L929 (NCTC clone 929, ATCC® CCL-1™) (mouse fibroblasts) using the MTT test for 24- and 48 h cultures.
A549 (ECACC 86012804) (non-small-cell lung cancer) and T47D (ECACC 85102201) (breast cancer) were obtained from ECACC and propagated in Dulbecco’s Minimal Essential Medium, supplemented with 2 mM of glutamine, antibiotics ([…] streptomycin, 1% of 100 U/L penicillin) and 10% Fetal Bovine Serum. HeLa (ATCC® CCL-2™) (cervical cancer) and L929 (NCTC clone 929, ATCC® CCL-1™) (mouse fibroblasts) cell lines were obtained from ATCC and propagated in the Eagle Minimal Essential Medium supplemented with antibiotics ([…] streptomycin, 1% of 100 U/L penicillin) and with 10% and 5% FBS, respectively. The cell line was routinely grown in 75 cm^2 tissue culture flasks and kept in an incubator (humidified atmosphere of 5% CO2 at 37 °C). All examined cell lines were tested against mycoplasma contamination with microbiological assays.
The cell viability of tested compounds (14, 20, 21 and 27) was assessed by the MTT assay. In brief, the exponentially growing cells were plated in 100 μL/well in 96-well plates. After 24 h culturing, the cells were treated with different concentrations of compounds (range 10–100 μM). After 24 and 48 h of incubation, 10 μL of 5 mg/mL MTT was added to each well and the plates were incubated at 37 °C for additional 4 h. The medium was subsequently removed, the purple-colored precipitates of formazan were dissolved in 100 μL of DMSO. The color absorbance was recorded at 570 nm using a BioTek model EPOCH ELISA plate reader. All experiments were performed in triplicate. The absorbance values were in the range of linearity of the Lambert–Beer law.

[2] = system: Gram-negative bacteria; experiment: Broth microdilution, summary over reference Gram-negative bacteria; type: cell-based; conditions: for MIC: range over the reference Gram-negative bacteria; for antibacterial activity in words: reference Gram-negative bacteria
From the text: Procedures of in vitro antimicrobial assays are described in Supplementary Materials.
2. Microbiology – in vitro antimicrobial activity assays […]
using the broth microdilution method according to the European Committee on Antimicrobial Susceptibility Testing (EUCAST) and Clinical and Laboratory Standards Institute guidelines against a panel of reference and clinical or saprophytic strains of mi croorganisms, including the Gram-positive bacteria: Staphylococcus aureus ATCC 43300 (Methi-cillin Resistant S. aureus – MRSA), Staphylococcus aureus ATCC 29213 (Methicillin Susceptible S. aureus – MSSA), Staph-ylococcus epidermidis ATCC 12228, Micrococcus luteus ATCC 10240, Bacillus subtilis ATCC 6633 and Bacillus cereus ATCC 10876), Gram-negative bacteria: Bordetella bronchiseptica ATCC 4617, Escherichia coli ATCC 25922, Klebsiella pneumoniae ATCC 13883, Proteus mirabilis ATCC 12453, Salmonella typhimurium ATCC 14028 and Pseudomonas aeruginosa ATCC 9027, and fungi belonging to yeasts: Candida albicans ATCC 10231, Candida albicans ATCC 2091, Candida parapsilosis ATCC 22019, Candida glabrata ATCC 90030 and Candida krusei ATCC 14243. The microorganisms belonging to ATCC originated from American Type Culture Collection, routinely used for the evaluation of antimicrobials. All the used microbial cultures were first subcultured on nutrient agar or Sabouraud agar at 35°C for 18-24 h or 30°C for 24-48 h for bacteria […]
The surface of Mueller-Hinton agar (for bacteria) and RPMI 1640 with MOPS (for fungi) were inoculated with the suspensions of bacterial or fungal species. Microbial suspensions were prepared in sterile saline with an optical density of McFarland standard scale 0.5. The samples containing the compounds were dissolved in dimethyl sulfoxide (DMSO).
Furthermore, the bacterial and fungal suspensions put onto the Petri dishes with solid media containing 2 mg/mL of the tested compounds followed were incubated at 37°C for 24h and 30°C for 48h for bacteria and fungi, respectively. […]
Subsequently, MIC (Minimal Inhibitory Concentration) of the compounds was examined by the microdilution broth method, using their two-fold dilutions in Mueller-Hinton broth (for bacteria) and RPMI 1640 broth with MOPS (for fungi) prepared in the 96-well polystyrene plates. […] After incubation, the MIC was assessed spectrophotometrically as the lowest concentration of the […]
Appropriate DMSO, growth and sterile controls were carried out. […] The MBC/MFC was determined by removing the culture used for the MIC determination from each well and spotted onto the appro-priate agar medium. […] The lowest com-pounds concentration with no visible growth observed was assessed as a bactericidal/fungicidal concentration. […]

Which viability at 48 h, 25 µM [1] does the source give for `O=C(N/N=C/c1cc(I)cc(I)c1O)c1ccccc1I` [Compound 14, N-[(3,5-diiodo-2-hydroxyphenyl)methylidene]-2-iodobenzohydrazide] here?
The viability at 48 h, 25 µM was over 100%.

With `O=C(N/N=C/c1cc(Cl)cc(I)c1O)c1cccc(I)c1` [Compound 20, N-[(5-chloro-2-hydroxy-3-iodophenyl)methylidene]-3-iodobenzohydrazide] as the compound, how does the MIC [2] read?
Its MIC is 500 to 1000 µg/mL (≈ 950 to 1900 µM).

And the “antibacterial activity in words” value [2]?
The value was “mild or moderate”.

Which results are given for `O=C(N/N=C/c1cc(Cl)cc(I)c1O)c1ccc(I)cc1` [Compound 27, N-[(5-chloro-2-hydroxy-3-iodophenyl)methylidene]-4-iodobenzohydrazide]?
MIC [2]: 500 µg/mL (≈ 950 µM); antibacterial activity in words [2]: moderate (moderate bioactivity with MIC from 126 to 500 µg/mL)
